# Experimental data from ChEMBL document CHEMBL6182945, “MMAE-Based Peptide-Drug Conjugates Targeting GPC3 for Precision Chemoradiotherapy in Hepatocellular Carcinoma” (J Med Chem, 2025).
# Activity calls are given as the source filed them. The calls are words filed in the database; no cut-off is given here.
# Experiments:
# [1] = system: Hep 3B2; test: Cell cycle arrest in human Hep3B cells assessed as accumulation of cells at S phase at 30 nM measured after 24 hrs incubation by PI staining based flow cytometry (reference value: 28.91%); format: functional
# [2] = system: Huh-7; test: Cell cycle arrest in human Huh-7 cells assessed as accumulation of cells at S phase at 100 nM measured after 24 hrs incubation by PI staining based flow cytometry (reference value: 33.15%); format: functional
# [3] = system: Huh-7; test: In vivo antitumor activity against human Huh-7 cells xenografted in female BALB/c mouse assessed as reduction in tumor volume at 2 mg/kg, iv total 4 doses measured on day 17 relative to control; format: functional; parameters: scale not given: the % may be the effect or the level left; conditions: time 17 day
# [4] = system: Huh-7; test: Decrease in CDK1 expression in human irradiated Huh-7 cells at 100 nM measured after 24 hrs by Western blot analysis relative to irradiation alone; format: functional, cell-based
# [5] = system: Huh-7; test: Cell cycle arrest in human Huh-7 cells assessed as accumulation of cells at G2/M phase at 30 nM measured after 24 hrs incubation by PI staining based flow cytometry (reference value: 18.88%); format: functional
# [6] = system: Huh-7; test: Induction of immunogenic cell death (ICD) in human Huh-7 cells assessed as translocation of HMGB1 from nucleus to cytoplasm at 100 nM measured after 24 hrs by immunofluorescence assay; format: functional, cell-based
# [7] = system: Huh-7; test: In vivo antitumor activity against human Huh-7 cells xenografted in female BALB/c mouse assessed as gamma-H2AX positive cells at 1 mg/kg, iv followed by irradiated with 2 Gy for 2 consecutive days, once a week for 3 weeks measured on day 22; format: functional, organism-based; conditions: time 22.0 day
# [8] = system: Huh-7; test: Cell cycle arrest in human Huh-7 cells assessed as accumulation of cells at S phase at 50 nM measured after 30 hrs incubation by PI staining based flow cytometry (reference value: 37.30%); format: functional
# [9] = system: Huh-7; test: Induction of radiation induced gamma-H2AX phosphorylation in human irradiated Huh-7 cells at 100 nM measured after 24 hrs by Western blot analysis; format: functional, cell-based
# [10] = system: Huh-7; test: Decrease in CDC25C expression in human irradiated Huh-7 cells at 100 nM measured after 24 hrs by Western blot analysis; format: functional, cell-based
# [11] = system: Hep 3B2; test: Cell cycle arrest in human Hep3B cells assessed as accumulation of cells at G0/G1 phase at 10 nM measured after 24 hrs incubation by PI staining based flow cytometry (reference value: 48%); format: functional
# [12] = system: Huh-7; test: Cell cycle arrest in human Huh-7 cells assessed as accumulation of cells at G0/G1 phase at 10 nM measured after 24 hrs incubation by PI staining based flow cytometry (reference value: 47.97%); format: functional
# [13] = system: Huh-7; test: Cell cycle arrest in human Huh-7 cells assessed as accumulation of cells at G0/G1 phase at 100 nM measured after 24 hrs incubation by PI staining based flow cytometry (reference value: 47.97%); format: functional
# [14] = system: Huh-7; test: Cell cycle arrest in human Huh-7 cells assessed as accumulation of cells at phase G2/M at 50 nM measured after 24 hrs incubation by PI staining based flow cytometry (reference value: 18.42%); format: functional
# [15] = system: Huh-7; test: Radiosensitivity in human Huh-7 cells assessed as […] pre-treated overnight at 10 nM followed by irradiated with 2 Gy and measured after 14 days post treatment by crystal staining based clonogenic assay relative to compound alone/irradiation alone; format: functional; conditions: time 14.0 day
# [16] = system: Huh-7; test: In vivo antitumor activity against human Huh-7 cells xenografted in female BALB/c mouse assessed as delay in tumor growth at 1 mg/kg, iv followed by irradiated with 2 Gy for 2 consecutive days, once a week for 3 weeks measured on day 22; format: functional, organism-based; conditions: time 22.0 day
# [17] = system: Huh-7; test: Cell cycle arrest in human Huh-7 cells assessed as accumulation of cells at S phase at 30 nM measured after 24 hrs incubation by PI staining based flow cytometry (reference value: 33.15%); format: functional
# [18] = system: Huh-7; test: Cell cycle arrest in human Huh-7 cells assessed as accumulation of cells at S phase at 50 nM measured after 18 hrs incubation by PI staining based flow cytometry (reference value: 37.30%); format: functional
# [19] = system: LX-2; test: Cell cycle arrest in human LX-2 cells assessed as accumulation of cells at G2/M phase at 10 nM measured after 24 hrs incubation by PI staining based flow cytometry (reference value: 14.65%); format: functional
# [20] = system: Huh-7; test: In vivo apoptotic activity against human Huh-7 cells xenografted in female BALB/c mouse assessed as tumor apoptosis at 2 mg/kg, iv total 4 doses measured on day 17 relative to control by TUNEL assay; format: functional, organism-based; conditions: time 17.0 day
# [21] = system: Hep 3B2; test: Cell cycle arrest in human Hep3B cells assessed as accumulation of cells at G2/M phase at 30 nM measured after 24 hrs incubation by PI staining based flow cytometry (reference value: 23%); format: functional
# [22] = system: Huh-7; test: Cell cycle arrest in human Huh-7 cells assessed as accumulation of cells at S phase at 10 nM measured after 24 hrs incubation by PI staining based flow cytometry (reference value: 33.15%); format: functional
# [23] = system: LX-2; test: Cell cycle arrest in human LX-2 cells assessed as accumulation of cells at S phase at 10 nM measured after 24 hrs incubation by PI staining based flow cytometry (reference value: 36.93%); format: functional
# [24] = system: Huh-7; test: In vivo antitumor activity against human Huh-7 cells xenografted in female BALB/c mouse assessed as reduction in tumor volume at 1 mg/kg, iv total 4 doses measured on day 17 relative to control; format: functional; parameters: scale not given: the % may be the effect or the level left; conditions: time 17 day
# [25] = system: LX-2; test: Cell cycle arrest in human LX-2 cells assessed as accumulation of cells at S phase at 30 nM measured after 24 hrs incubation by PI staining based flow cytometry (reference value: 36.93%); format: functional
# [26] = system: LX-2; test: Cell cycle arrest in human LX-2 cells assessed as accumulation of cells at G2/M phase at 100 nM measured after 24 hrs incubation by PI staining based flow cytometry (reference value: 14.65%); format: functional
# [27] = system: Huh-7; test: Cell cycle arrest in human Huh-7 cells assessed as accumulation of cells at G0/G1 phase at 50 nM measured after 18 hrs incubation by PI staining based flow cytometry (reference value: 44.20%); format: functional
# [28] = system: Huh-7; test: Cell cycle arrest in human Huh-7 cells assessed as accumulation of cells at phase G2/M at 50 nM measured after 18 hrs incubation by PI staining based flow cytometry (reference value: 18.42%); format: functional
# [29] = system: Huh-7; test: Cell cycle arrest in human Huh-7 cells assessed as accumulation of cells at G2/M phase at 10 nM measured after 24 hrs incubation by PI staining based flow cytometry (reference value: 18.88%); format: functional
# [30] = system: Hep 3B2; test: Cell cycle arrest in human Hep3B cells assessed as accumulation of cells at S phase at 10 nM measured after 24 hrs incubation by PI staining based flow cytometry (reference value: 28.91%); format: functional
# [31] = system: Huh-7; test: Cell cycle arrest in human Huh-7 cells assessed as accumulation of cells at G2/M phase at 100 nM measured after 24 hrs incubation by PI staining based flow cytometry (reference value: 18.88%); format: functional
# [32] = system: Huh-7; test: Induction of DNA damage in human irradiated Huh-7 cells assessed as increase in DNA double break by measuring number of gamma-H2AX foci formation at 100 nM measured after 24 hrs by immunostaining assay (reference value: 6 +/- 2 foci); format: functional
# [33] = system: Huh-7; test: Cell cycle arrest in human Huh-7 cells assessed as accumulation of cells at S phase at 50 nM measured after 24 hrs incubation by PI staining based flow cytometry (reference value: 37.30%); format: functional
structure (smiles),measurement,setting,value
CC[C@H](C)[C@@H]([C@@H](CC(=O)N1CCC[C@H]1[C@H](OC)[C@@H](C)C(=O)N[C@H](C)[C@@H](O)c1ccccc1)OC)N(C)C(=O)[C@@H](NC(=O)[C@H](C(C)C)N(C)C(=O)OCc1ccc(NC(=O)[C@H](CCCNC(N)=O)NC(=O)[C@@H](NC(=O)CCCCCN2C(=O)CC(SC[C@H](N)C(=O)N[C@@H](CO)C(=O)N[C@@H](CC(N)=O)C(=O)N[C@@H](CC(=O)O)C(=O)N[C@@H](CCCNC(=N)N)C(=O)N3CCC[C@@H]3C(=O)N3CCC[C@@H]3C(=O)N[C@@H](CC(N)=O)C(=O)N[C@H](C(=O)N[C@@H](CC(C)C)C(=O)N[C@@H](CCC(N)=O)C(=O)N[C@@H](CCCCN)C(=O)N[C@@H](CCCNC(=N)N)C(N)=O)[C@@H](C)CC)C2=O)C(C)C)cc1)C(C)C (stereo partly drawn),Activity,[1],26.35%
same,Activity,[2],11.54%
same,Activity,[3],66%
same,Activity,[4],Active
same,Activity,[5],49.02%
same,Activity,[6],Active
same,Activity,[7],Active
same,Activity,[8],13.43%
same,Activity,[9],Active
same,Activity,[10],Active
same,Activity,[11],41.26%
same,Activity,[12],50.55%
same,Activity,[13],12.12%
same,Activity,[14],56.79%
same,Activity,[15],Active
same,Activity,[16],Active
same,Activity,[17],13.76%
same,Activity,[18],24.32%
same,Activity,[19],13.04%
same,Activity,[20],Active
same,Activity,[21],45.12%
same,Activity,[22],13.8%
same,Activity,[23],38.15%
same,Activity,[24],40%
same,Activity,[25],38.52%
same,Activity,[26],23.65%
same,Activity,[27],31.13%
same,Activity,[28],44.55%
same,Activity,[29],35.65%
same,Activity,[30],19.52%
same,Activity,[31],76.34%
same,Activity,[32],18
same,Activity,[33],14.94%
